# Literature values, collected in patent US20240300988A1, “CRYSTALLINE FORMS OF PENTAAZA MACROCYCLIC RING COMPLEX” (Galera Labs, LLC, priority 2023, published 2024).
# Tested on: VEGFr inhibitor-induced pulmonary disease
# Details: rat model; Tuder et al., Am. J. Respir. Cell Mol. Biol., 29, 88-97 (2003)
smiles,measurement,value
[Cl][Mn][Cl].c1cc2nc(c1)CN[C@H]1CCCC[C@@H]1NCCN[C@H]1CCCC[C@@H]1NC2 [GC4419],effect on VEGFr inhibitor-induced pulmonary disease,attenuate VEGFr inhibitor-induced pulmonary disease
